For assay [1], the target named is human dopamine transporter (DAT) (Homo sapiens (Human), UniProt Q01959). The assay can be described thus: Scintillation Proximity Assay (SPA) competition binding, human DAT. As to conditions: recombinant hDAT-CHO membranes, [3H]WIN-35,428. From the text: (§1) Measure of Affinity to the Human Transporters DAT, NET and SERT
In the context of the present invention pKi values (corresponding to the antilogarithm of Ki) are used instead of Ki; pKi are only estimated to be accurate to about 0.3 log unit.
(§2) Scintillation Proximity Assay (SPA) for Human DAT, NET and SERT Binding
(§3) Chinese Hamster Ovary (CHO) cells stably expressing either human DAT (hDAT-CHO) or human NET (hNET-CHO) or human SERT (hSERT-CHO) are used for the membrane preparations for radioligand binding assays using Scintillation proximity Assay (SPA) technique. Each cell line is cultured independently in F-12K Nutrient Mixture containing 10% of Fetal Bovine Serum (FBS) supplemented with 450 μg/ml G-418. When cells are at 70-80% of confluence 3 mM Na Butyrate was added to the cell culture medium. After 24 h of incubation, the culture medium was removed and the cells detached with Versene (DAT) or by scraping (NET and SERT). Cell suspension is centrifuged at 41,000 g for 10 minutes at 4° C. The resultant pellets are re-suspended in 15 volumes of Ice-cold buffer (20 mM HEPES, 145 mM NaCl, 5 mM KCl, pH7.3), homogenized using an Ultra Turrax homogeniser and centrifuged as before. The resultant membrane pellets are re-suspended in up to 15 volume of ice-cold buffer, incubated for 20 minutes at 37-C and centrifuged as before at 41,000 g. The final membrane pellets are re-suspended into 5-10 volumes of ice-cold buffer, dispensed into 0.5 ml aliquots and stored at −80° C. until use. Protein concentration for each preparation is determined using Bio-Rad Protein Assay kit.
(§4) The affinity of the compounds of the invention to the human DAT or NET or SERT transporters is assessed by using the [^3H]WIN-35,428 or [^3H]nisoxetine or [^3H]citalopram binding assays in recombinant human DAT, NET and SERT membranes with the SPA technology. The final assay volume is 50 μL in 384 well plates.
(§5) Briefly, 0.5 μL of test compound in neat DMSO or 0.5 μL of DMSO for total binding (TB) or 0.5 μL of indatraline 1 mM (10 μM final concentration) for non specific binding (NSB) are added to the assay plate. 50 μL of the SPA mixture is added to each well, containing: 30 μg/mL or 10 μg/mL or 25 μg/mL DAT, NET, SERT membranes, respectively; 5 nM [^3H]WIN-35,428 or 5 nM [^3H]nisoxetine or 1 nM [^3H]citalopram, for DAT, NET, SERT assay, respectively; 2.5 mg/mL or 1 mg/mL or 4 mg/mL WGA-PVT SPA beads (PerkinElmer RPNQ0001, for DAT, NET, SERT assay, respectively. All components are added to Assay Buffer (20 mM HEPES pH 7.4, 145 mM NaCl, 5 mM KCl, 0.01% Pluronic F-127). 0.02% BSA was used for DAT binding only. Plates are sealed with Topseal A and centrifuged 1 min, 800 rpm. Plates are loaded into a 1450 Microbeta TriLux (Perkin-Elmer) plate reader and the radioactivity counted after at least 4 hrs or overnight incubation at room temperature. Curve fitting and IC50 estimations are performed using a four parameter model in XLfit (IDBS, Guilford, UK) for Microdoft Excel (Microsoft, Redmond, Wash.).
In general terms: In a scintillation proximity assay essentially only radioactivity close to the scintillant gives light.

For assay [2], the target named is human serotonin transporter (SERT) (Homo sapiens (Human), UniProt P31645). The assay can be described thus: Scintillation Proximity Assay (SPA) competition binding, human SERT. Particulars: recombinant hSERT-CHO membranes, [3H]citalopram.
Excerpt: as §1
(§6) Affinity is expressed in terms of inhibition constant (Ki) of the compounds of the invention for DAT, NET and SERT, and it is typically calculated from the IC50 values obtained in competition experiments using Cheng and Prusoff equation (Cheng and Prusoff, Biochem. Pharmacol. 22:3099, 1973). In the context of the present invention pKi values (corresponding to the antilogarithm of Ki) are used instead of Ki; pKi are only estimated to be accurate to about 0.3 log unit.
as §2, §3, §4, §5

For assay [3], the target named is human norepinephrine transporter (NET) (Homo sapiens (Human), UniProt P23975). The assay can be described thus: Scintillation Proximity Assay (SPA) competition binding, human NET. As to conditions: recombinant hNET-CHO membranes, [3H]nisoxetine.
Excerpt: as §1, §6, §2, §3, §4, §5

Chain of human serotonin transporter (SERT) (P31645 whole entry): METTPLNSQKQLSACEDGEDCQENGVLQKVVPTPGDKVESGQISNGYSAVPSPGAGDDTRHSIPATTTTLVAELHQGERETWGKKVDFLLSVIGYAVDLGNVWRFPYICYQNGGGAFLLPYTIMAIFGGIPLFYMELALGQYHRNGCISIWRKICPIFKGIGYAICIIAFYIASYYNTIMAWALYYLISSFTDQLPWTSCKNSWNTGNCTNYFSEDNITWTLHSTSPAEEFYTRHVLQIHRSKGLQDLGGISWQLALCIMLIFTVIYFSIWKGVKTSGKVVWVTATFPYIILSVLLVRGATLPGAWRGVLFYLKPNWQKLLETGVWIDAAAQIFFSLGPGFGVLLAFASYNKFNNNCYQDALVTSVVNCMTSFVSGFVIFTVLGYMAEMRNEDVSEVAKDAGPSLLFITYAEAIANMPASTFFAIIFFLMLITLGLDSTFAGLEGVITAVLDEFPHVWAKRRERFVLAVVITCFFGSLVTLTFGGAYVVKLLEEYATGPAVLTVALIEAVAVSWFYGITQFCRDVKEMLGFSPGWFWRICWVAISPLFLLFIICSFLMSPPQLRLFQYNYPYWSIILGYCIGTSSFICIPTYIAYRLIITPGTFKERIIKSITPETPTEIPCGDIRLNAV
Chain of human norepinephrine transporter (NET) (P23975 whole entry): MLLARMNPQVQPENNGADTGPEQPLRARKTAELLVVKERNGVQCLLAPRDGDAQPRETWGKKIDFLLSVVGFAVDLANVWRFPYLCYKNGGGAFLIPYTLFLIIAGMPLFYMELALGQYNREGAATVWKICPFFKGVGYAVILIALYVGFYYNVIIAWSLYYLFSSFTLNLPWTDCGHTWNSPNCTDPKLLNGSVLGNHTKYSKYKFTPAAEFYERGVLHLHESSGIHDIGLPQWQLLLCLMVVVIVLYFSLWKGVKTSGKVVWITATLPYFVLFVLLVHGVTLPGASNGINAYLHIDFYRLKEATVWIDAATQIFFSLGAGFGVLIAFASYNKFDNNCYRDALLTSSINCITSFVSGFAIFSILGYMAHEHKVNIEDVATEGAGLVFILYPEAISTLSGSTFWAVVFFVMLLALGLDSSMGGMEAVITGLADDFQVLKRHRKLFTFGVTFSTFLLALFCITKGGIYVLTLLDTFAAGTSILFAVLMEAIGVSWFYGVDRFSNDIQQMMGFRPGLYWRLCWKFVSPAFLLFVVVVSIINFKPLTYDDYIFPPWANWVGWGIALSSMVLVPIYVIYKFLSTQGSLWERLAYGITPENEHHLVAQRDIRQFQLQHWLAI
Chain of human dopamine transporter (DAT) (Q01959 whole entry): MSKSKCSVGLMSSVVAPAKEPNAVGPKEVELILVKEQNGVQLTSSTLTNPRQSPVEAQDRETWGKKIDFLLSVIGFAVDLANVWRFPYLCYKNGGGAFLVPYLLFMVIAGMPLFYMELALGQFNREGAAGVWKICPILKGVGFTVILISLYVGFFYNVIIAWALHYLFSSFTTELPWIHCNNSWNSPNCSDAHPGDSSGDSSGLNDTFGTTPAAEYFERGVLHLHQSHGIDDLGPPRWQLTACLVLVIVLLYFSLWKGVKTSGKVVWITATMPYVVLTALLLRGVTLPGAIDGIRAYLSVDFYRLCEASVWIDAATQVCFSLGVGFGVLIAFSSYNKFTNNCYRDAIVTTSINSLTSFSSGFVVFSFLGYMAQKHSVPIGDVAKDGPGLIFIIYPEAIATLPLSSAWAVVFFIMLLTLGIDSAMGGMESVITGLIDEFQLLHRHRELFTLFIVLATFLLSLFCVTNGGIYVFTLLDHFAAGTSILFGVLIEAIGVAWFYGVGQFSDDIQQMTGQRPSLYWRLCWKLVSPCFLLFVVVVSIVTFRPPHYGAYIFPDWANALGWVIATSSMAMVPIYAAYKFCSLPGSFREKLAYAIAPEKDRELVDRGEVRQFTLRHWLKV

By IC50 is commonly meant the midpoint of a concentration-inhibition curve. In the case of `Cl.Fc1cccc(Oc2cc(F)c(F)cc2N2CCC3(CC2)CNCC(F)(F)O3)c1` [Example 69, 9-[4,5-difluoro-2-(3-fluorophenoxy)phenyl]-2,2-difluoro-1-oxa-4,9-diazaspiro[5.5]undecane hydrochloride], the “pIC50 DAT” value in assay [1] came out at 5.97. Besides, in assay [2], the IC50 is more than 100 µM. Moreover, the “pIC50 NET” value in assay [3] was determined as 5.06.
On to `CSc1cc(N2CCC3(CC2)CNCCO3)nc(Oc2cccc(F)c2)n1.Cl` [Example 64, 9-[2-(3-fluorophenoxy)-6-(methylsulfanyl)pyrimidin-4-yl]-1-oxa-4,9-diazaspiro[5.5]undecane hydrochloride], for which the “pIC50 DAT” value in assay [1] is 6.38. Besides, in assay [2], the “pIC50 SERT” value is 4.86. Besides, the “pIC50 NET” value in assay [3] is reported as 5.35.
`Cc1cc(Oc2cccc(OC(F)(F)F)c2)nc(N2CCC3(CC2)CNCCO3)n1.Cl` [Example 47, 9-{4-methyl-6-[3-(trifluoromethoxy)phenoxy]pyrimidin-2-yl}-1-oxa-4,9-diazaspiro[5.5]undecane hydrochloride]: the “pIC50 DAT” value in assay [1] is 6.59. In assay [2], the “pIC50 SERT” value came out at 5.27. For the same molecule, in assay [3], the “pIC50 NET” value came to 5.51.
In the case of `Cl.Fc1cccc(Oc2cc(C(F)(F)F)nc(N3CCOC4(CCNCC4)C3)n2)c1` [Example 67, 4-[4-(3-fluorophenoxy)-6-(trifluoromethyl)pyrimidin-2-yl]-1-oxa-4,9-diazaspiro[5.5]undecane hydrochloride], the “pIC50 DAT” value in assay [1] was 7.80. Also, in assay [2], the “pIC50 SERT” value stood at 5.32. Moreover, in assay [3], the “pIC50 NET” value turned out to be 6.02.
Take `COc1ccccc1Oc1cc(C)nc(N2CCC3(CC2)CNCCO3)n1.Cl` [Example 52, 9-[4-(2-methoxyphenoxy)-6-methylpyrimidin-2-yl]-1-oxa-4,9-diazaspiro[5.5]undecane hydrochloride]: the “pIC50 DAT” value in assay [1] is reported as 5.96. Moreover, in assay [2], the IC50 is more than 100 µM. The “pIC50 NET” value in assay [3] was determined as 5.30.
In the case of `Cl.Fc1cccc(Oc2cc(F)c(F)cc2N2CCC3(CCNCC34OCCO4)C2)c1` (stereo not drawn) [Example 94, 8-[4,5-difluoro-2-(3-fluorophenoxy)phenyl]-1,4-dioxa-8,13-diazadispiro[4.0.4^6.4^5]tetradecane hydrochloride], the “pIC50 DAT” value in assay [1] is reported as 8.69. For the same molecule, the “pIC50 SERT” value in assay [2] is 7.14. In addition, in assay [3], the “pIC50 NET” value is reported as 7.11.
For the molecule `Fc1cccc(Oc2cc(F)c(F)cc2N2CCC3(CNCCC34OCCO4)C2)c1` (stereo not drawn) [Example 85, 8-[4,5-difluoro-2-(3-fluorophenoxy)phenyl]-1,4-dioxa-8,12-diazadispiro[4.0.4^6.4^5]tetradecane], in assay [1], the “pIC50 DAT” value worked out at 6.62. Further, in assay [2], the “pIC50 SERT” value worked out at 6.35. Further, in assay [3], the “pIC50 NET” value turned out to be 5.81.
On the same counts, the results for `Cl.Fc1ccc(Oc2cc(C(F)(F)F)nc(N3CCC4(CC3)CNCCO4)n2)cc1` [Example 58, 9-[4-(4-fluorophenoxy)-6-(trifluoromethyl)pyrimidin-2-yl]-1-oxa-4,9-diazaspiro[5.5]undecane hydrochloride] are 7.53, 7.31 and 5.52.
For the molecule `Fc1cccc(Oc2cc(F)c(F)cc2N2CCCC3(CCCNC3)C2)c1` (stereo not drawn) [Example 81, 2-[4,5-difluoro-2-(3-fluorophenoxy)phenyl]-2,8-diazaspiro[5.5]undecane], the “pIC50 DAT” value in assay [1] was 7.18. Besides, in assay [2], the “pIC50 SERT” value is recorded as 6.71. The “pIC50 NET” value in assay [3] was found to be 6.25.
Regarding `Cl.Fc1cccc(Oc2cccc(N3CCC4(CC3)CNCCO4)n2)c1` [Example 36, 9-[6-(3-fluorophenoxy)pyridin-2-yl]-1-oxa-4,9-diazaspiro[5.5]undecane hydrochloride], the “pIC50 DAT” value in assay [1] is 7.37. In addition, the “pIC50 SERT” value in assay [2] was 5.66. Besides, the “pIC50 NET” value in assay [3] was determined as 5.73.
Turning to `Cc1cc(Oc2ccccc2C)nc(N2CCC3(CC2)CNCCO3)n1.Cl` [Example 51, 9-[4-methyl-6-(2-methylphenoxy)pyrimidin-2-yl]-1-oxa-4,9-diazaspiro[5.5]undecane hydrochloride], the “pIC50 DAT” value in assay [1] was 7.33. For the same molecule, the “pIC50 SERT” value in assay [2] is recorded as 5.21. Besides, the “pIC50 NET” value in assay [3] is 5.78.

The values above are taken from patent publication US9908897B2, “Spirocyclic derivatives” (CHRONOS THERAPEUTICS LIMITED, priority 2014, dated 2018).
